# Assay results: patent publication US11944601B2, “Applications of ellagic acid in preparation of immunomodulatory medicines for treatment of neuromyelitis optica or immune rejection after skin transplantation” (priority 2022, dated 2024)
# Legend:
# Treg cells = test: Treg polarization in vitro, flow cytometry; assay type: cell-based, mice; conditions: 0.5-2 μM, 3 days
# Protocol: (§1) Single-cell suspension of spleen isolated from normal female C57BL/6 mice (aged 8-10 weeks) was co-cultured with anti-CD3 (0.5 μg/mL), anti-CD28 (1 μg/mL), TGF-β (2 ng/mL), IL-6 (20 ng/mL), IL-1 β (10 ng/mL), anti-IL-4 (10 μg/mL) and anti-IFN-γ (10 μg/mL) for 3 days to induce differentiation into Th17 cells. Cells were cultured with anti-CD3 (0.5 μg/mL), anti-CD28 (1 μg/mL), TGF-β (2 ng/mL) and IL-2 (10 ng/ml) for 3 days to induce differentiation into Treg cells. Cytokines were detected by flow cytometry.
# IFN-γ and IL-17 = test: Skin transplantation model, ELISA of splenocyte culture supernatant; assay type: in vivo, mice
# Protocol: (§2) The donor BALB/c mice were sacrificed, the dorsal hair was removed with a shaver. Appropriately sized skin grafts were cut, peeled off, washed, immersed in sterilized saline containing antibiotics for 5 minutes, and finally stored on ice for backup. The receptor C57BL/6 mice were intraperitoneally injected with 0.5% of pentobarbital sodium injection according to the body weight of 0.15 mL/20 g. After the mice were anesthetized, they were fixed on a surgical plate, the mid-dorsal parts of the mice body slightly to the lefts were selected as operation areas. Mice were shaved and disinfected with 75% alcohol to prepare graft beds. The prepared donor skin sheet was placed on the predetermined transplantation bed of recipient mice and then flattened. The skin patch was sutured to the transplant bed by discontinuous suture with 6-0 sutures. The recipient mice were administered therapeutic medicines from the day of surgery. […] The spleens of the receptor mice were taken on the 7th day to isolate single cells for flow cytometer detection. The supernatant of splenocytes was collected for enzyme-linked immunosorbent assay (ELISA).
# EAE mice [1] = test: EAE mice, clinical scores; assay type: in vivo; conditions: for EAE clinical score / course of disease: administered from day 0 of immunization (prevention stage); for EAE clinical score / course of disease / EAE clinical score / development of EAE: EA intraperitoneally, URA 25 mg/kg
# [2] = system: skin transplantation model; test: Skin transplantation model, H&E staining of skin grafts; assay type: in vivo; conditions: BALB/c skin on C57BL/6 mice
# [3] = system: Th1, Th17 and Treg cells in the peripheral immune system; test: Skin transplantation model, spleen cells of receptor mice by flow cytometry; assay type: in vivo; conditions: day 7, cultured 72 hours
# Protocol: as §2
# EAE mice [4] = test: EAE mice, CNS-infiltrating mononuclear cells by flow cytometry; assay type: in vivo
# Protocol: EAE mice were randomly divided into EA groups and URA groups. EA groups were divided into blank control group, fingolimod (FTY-720) positive control group (0.1 mg/kg) and EA administration group (0.1 mg/kg). URA groups were divided into blank control group and URA administration group (25 mg/kg). To induce EAE, mice were immunized at two sites on the back with 200 μg of myelin oligodendrocyte glycoprotein peptide 35-55 (MOG35-55) (Genescript) in 200 μL of emulsion containing 50% complete Freund's adjuvant with 5 mg/ml Mycobacterium tuberculosis H37Ra (Difco). All mice were i.p. injected with 200 ng pertussis toxin (Sigma-Aldrich) in PBS on days 0 and 2 postimmunization (p.i.). Ellagic acid (EA) and its metabolic derivative URA were purchased from Ark Pharm, Inc and respectively administered to EAE mice on the day of immunization, the 11th day p.i and the 17th day p.i.
# Mice were sacrificed at day 20 p.i. Approximately 0.5 cm of the lumbosacral enlarged spinal cord was removed from the sacrificed mouse and fixed in 4% (w/v) paraformaldehyde. […]
# For flow cytometry surface marker staining, the cells were incubated with surface-stained fluorescent microsphere-coupled antibodies or isotype control antibodies on ice for 30 min. […] Data were further detected by flow cytometry and analyzed by Flowjo software (Treestar, Ashland, OR).
# [5] = system: NMO-IgG induced cerebral lesion in mice; test: NMO-IgG induced cerebral lesion in mice, AQP4 and MBP staining of brain slices; assay type: in vivo; conditions: 2 mg/kg/d from three days before surgery; fifth day of modeling
# From the text: Female C57BL/6 mice aged 6-8 weeks were purchased from Air Force Military Medical University (Xi'an, China). Mice were fed under standard light and temperature conditions. All experimental procedures and protocols were approved by the institutional animal ethics Committee of Shaanxi Normal University and carried out in accordance with the approved institutional guidelines and regulations.
# WO mice were randomly divided into control group and EA group. In order to induce WO, mice were first anesthetized with 10% (w/v) of chloral hydrate and installed on a brain stereotactic apparatus (RWD Life Science), then the mouse scalp was cut along the midline, a small hole with a diameter of 1 mm was drilled on the skull 2 mm on the right side of the anterior fontanelle, and finally 5 μL microinjector (Hamilton) was inserted 3 mm deep and 2 μL of NMO-IgG and 3 μL of complement were injected at a rate of 1 μL/min. EA (2 mg/kg/d) and control solvents were administered to WO mice three days before surgery.
# The mice were sacrificed on the fifth day of modeling. The brain tissue was removed from the mice and fixed in 4% (w/v) of paraformaldehyde. The frozen sections were stained with AQP4 and MBP.
# Th17 cells = test: Th17 polarization of spleen cells in vitro, flow cytometry; assay type: cell-based, mice; conditions: for polarization of Th17 cells: 3 days; for polarization of Th17 cells / Th1 cells (IFN-γ): flow cytometry; for inhibitory effect on Th17 / IL17 at 5 μM compared with the lower concentration: 5 μM vs 2.5 μM (EA) or 1 μM (URA)
# Protocol: as §1
# colitis mice = test: DSS-induced acute colitis in mice; assay type: in vivo; conditions: 100 mg/kg/d, 2.5% DSS 7 days
# Protocol: The mice were randomly divided into control group and EA treatment group. 2.5% (w/v) of dextran sodium sulfate (DSS) was added to drinking water continuously for 7 days to induce acute colitis, and mice in the treatment group were fed 100 mg/kg/d EA. During the experiment, mice were weighed regularly every day and the percentage change was calculated. In addition, the feces characteristics of mice were observed every day and divided into three grades according to the methods of Berberat et al. 1: normal, 2: increased stool viscosity and easily dispersed, 3: watery diarrhea. Moreover, hidden blood of mouse feces was measured by pyramidon method. If the mouse feces contained reddish-brown or bright red blood visible to the naked eye, it was determined as fecal blood. Finally, the disease activity index (DAI) of mice was calculated according to the scoring criteria of Berberat et al. The whole segment of colon from anus to the end of cecum of mice was taken, the length was measured and photographed for recording.
# EAE mice [6] = test: EAE mice, spinal cord pathological sections (H&E, LFB, MBP staining); assay type: in vivo; conditions: for demyelination of white matter of spinal cord (LFB) / infiltration of spinal cord inflammatory cells (H&E): day 20 p.i., EA lumbosacral, URA cervical enlargement of spinal cord
# [7] = system: IL-17 family-related genes; test: RT-qPCR of Th17-related genes in naïve CD4+ T cells under Th17 polarizing conditions; assay type: cell-based, mice; conditions: 4 h, vs PBS
# Protocol: Total RNA was extracted by using RNAprep Pure Cell/Tissue Kit (TIANGEN) and then reverse transcribed with Hiscript QRT Supermix (Vazyme) according to the manufacturer's instructions. mRNA expression was determined by real-time quantitative PCR using 2×ChamQ™ SYBR® qPCR Master Mix (Vazyme). Data was quantitatively analyzed on Roche Molecular Biochemicals Light Cycler Software Version 3.5. Mouse GAPDH gene was used as endogenous control for sample normalization.
# [8] = administered from onset stage (day 11 p.i.)
# [9] = administered from peak period (day 17 p.i.)
compound,measurement,setting,value
"O=c1oc2c(O)c(O)cc3c(=O)oc4c(O)c(O)cc1c4c23 [EA, ellagic acid]",polarization of naïve CD4+T towards Treg,Treg cells,promote the polarization of naïve CD4+T towards Treg in a dose-dependent manner
same,content of IFN-γ in supernatant of splenocytes,IFN-γ and IL-17,significantly reduced
same,content of IL-17 in supernatant of splenocytes,IFN-γ and IL-17,significantly reduced
same,effect on IFN-γ and IL-17 content compared with CsA,IFN-γ and IL-17,better than that of CsA
same,therapeutic effect in EAE compared with fingolimod (FTY-720),EAE mice [1]; EA 0.1 mg/kg vs FTY-720 0.1 mg/kg,equivalent
same,EAE clinical score / course of disease,EAE mice [1],inhibited the course of disease
same,EAE clinical score / development of EAE,EAE mice [1]; [8],significantly inhibited
same,EAE clinical score / development of EAE,EAE mice [1]; [9],significantly inhibited
same,progress of EAE disease,"EAE mice [1]; oral administration from day 0 of immunization, dosage 250 times that of injection",effectively alleviate the progress of the disease
same,infiltration of inflammatory cells in the grafted skin,[2],significantly inhibited
same,Th1 inflammatory cells,[3],significantly inhibited
same,Th17 inflammatory cells,[3],significantly inhibited
same,proportion of anti-inflammatory cell Treg,[3],increased
same,"absolute number of CD45+, CD45+CD4+, CD4+IL-17+, CD4+IFN-γ+ and CD4+GM-CSF+ cells infiltrating into the CNS",EAE mice [4],significantly reduced
same,"absolute number of pro-inflammatory microglia and macrophages infiltrating into CNS (CD45high+CD11b+, CD45low+CD11b+, CD11b+MHC II+, CD11b+TNF-α+, CD11b+Nos2+)",EAE mice [4],decreased
same,AQP4 protein loss rate,[5],lower than that in control group
same,degree of demyelination (MBP),[5],decreased
same,polarization of Th17 cells,Th17 cells; 2.5 μM,significantly inhibited
same,inhibitory effect on Th17 / IL17 at 5 μM compared with the lower concentration,Th17 cells,better
same,polarization of Th17 cells,Th17 cells; 5 μM,significantly inhibited
same,colon length,colitis mice,significantly restored
same,DAI score,colitis mice; vs DSS control group,decreased significantly
same,percentage of weight loss,colitis mice; vs DSS control group,significantly lower
same,demyelination of white matter of spinal cord (LFB),EAE mice [6],significantly attenuated
same,infiltration of spinal cord inflammatory cells (H&E),EAE mice [6],significantly attenuated
"O=c1oc2cc(O)ccc2c2ccc(O)cc12 [URA, urolithin A]",expression level of IL-17 family-related genes,[7],decreased
same,expression of Foxp3,[7],promoted the expression of Foxp3 to a certain extent
same,EAE clinical score / course of disease,EAE mice [1],reduced the clinical scores
same,EAE clinical score / development of EAE,EAE mice [1]; [8],reduced the clinical scores
same,EAE clinical score / development of EAE,EAE mice [1]; [9],reduced the clinical scores
same,dose dependence of inhibition on IFN-γ,Th17 cells; 1 μM and 5 μM,no dose-dependent inhibition
same,polarization of Th17 cells,Th17 cells; 1 μM,significantly inhibited
same,Th1 cells (IFN-γ),Th17 cells; 1 μM,significantly inhibited
same,inhibitory effect on Th17 / IL17 at 5 μM compared with the lower concentration,Th17 cells,more significantly
same,polarization of Th17 cells,Th17 cells; 5 μM,significantly inhibited
same,Th1 cells (IFN-γ),Th17 cells; 5 μM,significantly inhibited
same,proportion of intact myelin sheath in the spinal cord (MBP),EAE mice [6]; compared with control mice,significantly increased
same,demyelination of white matter of spinal cord (LFB),EAE mice [6],significantly relieved
same,infiltration of spinal cord inflammatory cells (H&E),EAE mice [6],significantly relieved
